Laboratory results taken from PubChem BioAssay (NCI).
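GI50 marks 50% less growth. TGI is the concentration that stops growth completely.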

Assays:
Test in all cases: DTP human tumour cell line panel, 384-well format
CAKI-1 renal = test system: CAKI-1 renal
M14 melanoma = test system: M14 melanoma
HCT-116 colon = test system: HCT-116 colon
SF-268 CNS = test system: SF-268 CNS
NCI-H322M lung = test system: NCI-H322M lung
UACC-257 melanoma = test system: UACC-257 melanoma
RXF 393 renal = test system: RXF 393 renal
SF-539 CNS = test system: SF-539 CNS
HCC-2998 colon = test system: HCC-2998 colon
BT-549 breast = test system: BT-549 breast
SN12C renal = test system: SN12C renal
SNB-75 CNS = test system: SNB-75 CNS
UO-31 renal = test system: UO-31 renal
ACHN renal = test system: ACHN renal
LOX IMVI melanoma = test system: LOX IMVI melanoma
T-47D breast = test system: T-47D breast
NCI-H460 NSCLC = test system: NCI-H460 NSCLC
NCI-H23 lung = test system: NCI-H23 lung
HL-60(TB) leukemia = test system: HL-60(TB) leukemia
NCI/ADR-RES ovarian = test system: NCI/ADR-RES ovarian
HS 578T breast = test system: HS 578T breast
OVCAR-3 ovarian = test system: OVCAR-3 ovarian
IGROV1 ovarian = test system: IGROV1 ovarian
SNB-19 CNS = test system: SNB-19 CNS
A498 renal = test system: A498 renal
HOP-62 NSCLC = test system: HOP-62 NSCLC
OVCAR-8 ovarian = test system: OVCAR-8 ovarian
SR leukemia = test system: SR leukemia
SK-OV-3 ovarian = test system: SK-OV-3 ovarian
KM12 colon = test system: KM12 colon
HT29 colon = test system: HT29 colon
COLO 205 colon = test system: COLO 205 colon
MDA-MB-231 breast = test system: MDA-MB-231 breast
PC-3 prostate = test system: PC-3 prostate
U251 glioblastoma = test system: U251 glioblastoma
EKVX NSCLC = test system: EKVX NSCLC
K-562 leukemia = test system: K-562 leukemia
DU-145 prostate = test system: DU-145 prostate
SK-MEL-5 melanoma = test system: SK-MEL-5 melanoma
RPMI-8226 leukemia = test system: RPMI-8226 leukemia
A549 NSCLC = test system: A549 NSCLC
786-0 renal = test system: 786-0 renal
TK-10 renal = test system: TK-10 renal
NCI-H522 lung = test system: NCI-H522 lung
HOP-92 NSCLC = test system: HOP-92 NSCLC
MCF7 breast = test system: MCF7 breast
MALME-3M melanoma = test system: MALME-3M melanoma
MDA-MB-468 breast = test system: MDA-MB-468 breast
SK-MEL-28 melanoma = test system: SK-MEL-28 melanoma
HCT-15 colon = test system: HCT-15 colon
NCI-H226 lung = test system: NCI-H226 lung
MOLT-4 leukemia = test system: MOLT-4 leukemia
OVCAR-4 ovarian = test system: OVCAR-4 ovarian
SW-620 colon = test system: SW-620 colon
CCRF-CEM leukemia = test system: CCRF-CEM leukemia
UACC-62 melanoma = test system: UACC-62 melanoma
SF-295 CNS = test system: SF-295 CNS
MDA-MB-435 melanoma = test system: MDA-MB-435 melanoma

Structure (SMILES): NC(=O)c1ccc2nc(-c3ccc(C4(N)CCC4)cc3)c(-c3ccccc3)n2n1
- GI50 (CAKI-1 renal): 2540 nM
- TGI (CAKI-1 renal): 16.8 µM
- GI50 (M14 melanoma): 12.8 µM
- TGI (M14 melanoma): 25.5 µM
- GI50 (HCT-116 colon): 5.69 µM
- TGI (HCT-116 colon): 18.9 µM
- GI50 (SF-268 CNS): 12.3 µM
- TGI (SF-268 CNS): 24.8 µM
- GI50 (NCI-H322M lung): 9.27 µM
- TGI (NCI-H322M lung): 21.6 µM
- GI50 (UACC-257 melanoma): 11.3 µM
- TGI (UACC-257 melanoma): 23.4 µM
- GI50 (RXF 393 renal): 1600 nM
- TGI (RXF 393 renal): 10.7 µM
- GI50 (SF-539 CNS): 3.59 µM
- TGI (SF-539 CNS): 16.6 µM
- GI50 (HCC-2998 colon): 11.2 µM
- TGI (HCC-2998 colon): 23.2 µM
- GI50 (BT-549 breast): 2010 nM
- TGI (BT-549 breast): 15.2 µM
- GI50 (SN12C renal): 8.08 µM
- TGI (SN12C renal): 20.9 µM
- GI50 (SNB-75 CNS): 1250 nM
- TGI (SNB-75 CNS): 14.6 µM
- GI50 (UO-31 renal): 2910 nM
- TGI (UO-31 renal): 16 µM
- GI50 (ACHN renal): 11.2 µM
- TGI (ACHN renal): 23.3 µM
- GI50 (LOX IMVI melanoma): 8.43 µM
- TGI (LOX IMVI melanoma): 20.7 µM
- GI50 (T-47D breast): 28.2 nM
- TGI (T-47D breast): 2990 nM
- GI50 (NCI-H460 NSCLC): 1130 nM
- TGI (NCI-H460 NSCLC): 15.8 µM
- GI50 (NCI-H23 lung): 4.85 µM
- TGI (NCI-H23 lung): 17.5 µM
- GI50 (HL-60(TB) leukemia): 4.26 µM
- TGI (HL-60(TB) leukemia): 17 µM
- GI50 (NCI/ADR-RES ovarian): 15.3 µM
- TGI (NCI/ADR-RES ovarian): 29.3 µM
- GI50 (HS 578T breast): 1780 nM
- TGI (HS 578T breast): 11.8 µM
- GI50 (OVCAR-3 ovarian): 683 nM
- TGI (OVCAR-3 ovarian): 18 µM
- GI50 (IGROV1 ovarian): 250 nM
- TGI (IGROV1 ovarian): 11.7 µM
- GI50 (SNB-19 CNS): 13 µM
- TGI (SNB-19 CNS): 25.9 µM
- GI50 (A498 renal): 389 nM
- TGI (A498 renal): 10.6 µM
- GI50 (HOP-62 NSCLC): 12.1 µM
- TGI (HOP-62 NSCLC): 24.5 µM
- GI50 (OVCAR-8 ovarian): 12.8 µM
- TGI (OVCAR-8 ovarian): 25.5 µM
- GI50 (SR leukemia): 230 nM
- TGI (SR leukemia): 990 nM
- GI50 (SK-OV-3 ovarian): 538 nM
- TGI (SK-OV-3 ovarian): 12.7 µM
- GI50 (KM12 colon): 7.11 µM
- TGI (KM12 colon): 20.4 µM
- GI50 (HT29 colon): 2620 nM
- TGI (HT29 colon): 17.9 µM
- GI50 (COLO 205 colon): 2280 nM
- TGI (COLO 205 colon): 16.9 µM
- GI50 (MDA-MB-231 breast): 11.4 µM
- TGI (MDA-MB-231 breast): 23.7 µM
- GI50 (PC-3 prostate): 250 nM
- TGI (PC-3 prostate): 12.8 µM
- GI50 (U251 glioblastoma): 10.4 µM
- TGI (U251 glioblastoma): 22.2 µM
- GI50 (EKVX NSCLC): 5.35 µM
- TGI (EKVX NSCLC): 20.3 µM
- GI50 (K-562 leukemia): 4.2 µM
- TGI (K-562 leukemia): 16.2 µM
- GI50 (DU-145 prostate): 11.8 µM
- TGI (DU-145 prostate): 24.6 µM
- GI50 (SK-MEL-5 melanoma): 3.81 µM
- TGI (SK-MEL-5 melanoma): 16.3 µM
- GI50 (RPMI-8226 leukemia): 2390 nM
- TGI (RPMI-8226 leukemia): 10.3 µM
- GI50 (A549 NSCLC): 5.31 µM
- TGI (A549 NSCLC): 18.6 µM
- GI50 ([…]-0 renal): 2220 nM
- TGI (786-0 renal): 13.6 µM
- GI50 (TK-10 renal): 5.7 µM
- TGI (TK-10 renal): 20.5 µM
- GI50 (NCI-H522 lung): 13.7 µM
- TGI (NCI-H522 lung): 26.6 µM
- GI50 (HOP-92 NSCLC): 5.02 µM
- TGI (HOP-92 NSCLC): 18.7 µM
- GI50 (MCF7 breast): 125 nM
- TGI (MCF7 breast): 12.4 µM
- GI50 (MALME-3M melanoma): 2140 nM
- TGI (MALME-3M melanoma): 17.1 µM
- GI50 (MDA-MB-468 breast): 125 nM
- TGI (MDA-MB-468 breast): 8.31 µM
- GI50 (SK-MEL-28 melanoma): 6.42 µM
- TGI (SK-MEL-28 melanoma): 20.2 µM
- GI50 (HCT-15 colon): 11.9 µM
- TGI (HCT-15 colon): 24.4 µM
- GI50 (NCI-H226 lung): 8.96 µM
- TGI (NCI-H226 lung): 21.5 µM
- GI50 (MOLT-4 leukemia): 305 nM
- TGI (MOLT-4 leukemia): 1930 nM
- GI50 (OVCAR-4 ovarian): 14.6 µM
- TGI (OVCAR-4 ovarian): 28.2 µM
- GI50 (SW-620 colon): 15.8 µM
- TGI (SW-620 colon): 29.3 µM
- GI50 (CCRF-CEM leukemia): 498 nM
- TGI (CCRF-CEM leukemia): 10.7 µM
- GI50 (UACC-62 melanoma): 3.01 µM
- TGI (UACC-62 melanoma): 16.4 µM
- GI50 (SF-295 CNS): 944 nM
- TGI (SF-295 CNS): 11 µM
- GI50 (MDA-MB-435 melanoma): 12.6 µM
- TGI (MDA-MB-435 melanoma): 25.2 µM
